Test results reported in the NIST ThermoML archive (doi:10.1021/je200707b).

Key:
[1] = xn = mol fraction of the nth substance listed; settings: 101.3 kPa, Liquid; for viscosity: Falling or rolling sphere viscometry; for mass density: Vibrating tube method
[2] = refractive index (Na D-line) (dimensionless); xn = mol fraction of the nth substance listed; settings: 298.15 K, 101.3 kPa, Liquid, Standard Abbe refractometry

CC(=O)O.CCCCN [butylammonium acetate] + CO
[1]
Settings	mass density, 293.15 K [kg/m3]	mass density, 298.15 K [kg/m3]	mass density, 303.15 K [kg/m3]	mass density, 308.15 K [kg/m3]	mass density, 313.15 K [kg/m3]	viscosity, 293.15 K [mPa·s]	viscosity, 298.15 K [mPa·s]	viscosity, 303.15 K [mPa·s]	viscosity, 308.15 K [mPa·s]	viscosity, 313.15 K [mPa·s]
x1 = 0.0302	814.76	810.3	805.81	801.29	796.74	0.883	0.82	0.763	0.712	0.666
x1 = 0.0597	832.65	828.3	823.98	819.63	815.28	1.237	1.141	1.053	0.975	0.905
x1 = 0.1011	852.44	848.33	844.2	840.05	835.89	1.933	1.759	1.607	1.474	1.357
x1 = 0.1992	884.85	881.05	877.23	873.38	869.54	4.825	4.283	3.828	3.437	3.099
x1 = 0.301	906.27	902.66	899.04	895.45	891.77	11.1	9.608	8.354	7.294	6.415
x1 = 0.4023	920.99	917.52	914.03	910.53	907.04	23.22	19.57	16.66	14.34	12.54
x1 = 0.4995	931.42	928.03	924.64	921.23	917.83	44.76	36.68	30.45	25.59	21.65
x1 = 0.6524	943.29	940	936.69	933.39	930.08	115.48	92.51	69.01	53.46	47.61
x1 = 0.7993	951.52	948.31	945.07	941.83	938.59	256.45	195.97	151.07	118.32	94.24
x1 = 0.8988	955.88	952.69	949.49	946.3	943.09	418.49	312.52	242.56	183.85	142.67

[2]
Settings	refractive index
x1 = 0.0302	1.3413
x1 = 0.0597	1.3526
x1 = 0.1011	1.3665
x1 = 0.1992	1.3878
x1 = 0.301	1.403
x1 = 0.4023	1.4144
x1 = 0.4995	1.4212
x1 = 0.6524	1.4316
x1 = 0.7993	1.4365
x1 = 0.8988	1.4398

CC(=O)O.CCCCN [butylammonium acetate] + CCCCO
[1]
Settings	mass density, 293.15 K [kg/m3]	mass density, 298.15 K [kg/m3]	mass density, 303.15 K [kg/m3]	mass density, 308.15 K [kg/m3]	mass density, 313.15 K [kg/m3]	viscosity, 293.15 K [mPa·s]	viscosity, 298.15 K [mPa·s]	viscosity, 303.15 K [mPa·s]	viscosity, 308.15 K [mPa·s]	viscosity, 313.15 K [mPa·s]
x1 = 0.029	817.08	813.28	809.45	805.57	801.67	3.564	3.19	2.787	2.455	2.164
x1 = 0.0583	824.15	820.36	816.55	812.7	808.82	4.397	3.806	3.318	2.908	2.592
x1 = 0.1003	833.62	829.88	826.11	822.23	818.46	5.588	4.823	4.165	3.636	3.17
x1 = 0.1981	853.55	849.9	846.22	842.52	838.78	9.789	8.389	7.151	6.123	5.297
x1 = 0.2981	871.49	867.92	864.33	860.72	857.08	17.14	14.41	12.18	10.39	8.894
x1 = 0.399	887.71	884.21	880.69	877.17	873.62	28.33	23.48	19.6	16.5	14
x1 = 0.497	901.99	898.53	895.09	891.62	888.15	50.23	41.01	33.21	28.45	23.98
x1 = 0.6489	921.84	918.48	915.12	911.75	908.37	107.74	86.03	69.14	56.31	45.89
x1 = 0.7984	939.21	935.95	932.68	929.4	926.1	225.04	170.61	138.1	109.79	87.65
x1 = 0.9003	949.8	946.58	943.37	940.16	936.93	389.54	287.99	216.86	167.15	129.84

[2]
Settings	refractive index
x1 = 0.029	1.3999
x1 = 0.0583	1.4023
x1 = 0.1003	1.4053
x1 = 0.1981	1.4115
x1 = 0.2981	1.417
x1 = 0.399	1.4217
x1 = 0.497	1.4256
x1 = 0.6489	1.4314
x1 = 0.7984	1.4366
x1 = 0.9003	1.4399

CC(=O)O.CCCCN [butylammonium acetate] + CCO
[1]
Settings	mass density, 293.15 K [kg/m3]	mass density, 298.15 K [kg/m3]	mass density, 303.15 K [kg/m3]	mass density, 308.15 K [kg/m3]	mass density, 313.15 K [kg/m3]	viscosity, 293.15 K [mPa·s]	viscosity, 298.15 K [mPa·s]	viscosity, 303.15 K [mPa·s]	viscosity, 308.15 K [mPa·s]	viscosity, 313.15 K [mPa·s]
x1 = 0.0319	805.12	800.93	796.71	792.46	788.16	1.644	1.488	1.349	1.226	1.117
x1 = 0.0608	817.26	813.17	809.04	804.88	800.68	2.184	1.959	1.764	1.593	1.442
x1 = 0.0999	831.76	827.77	823.74	819.69	815.6	3.042	2.707	2.42	2.171	1.908
x1 = 0.1977	860.95	857.19	853.35	849.49	845.68	6.773	5.903	5.176	4.557	4.013
x1 = 0.2965	883.07	879.43	875.76	872.09	868.39	13.92	11.88	10.23	8.831	7.695
x1 = 0.4008	901.46	897.94	894.4	890.81	887.18	26.61	22.28	18.84	16.06	13.75
x1 = 0.5005	915.65	912.21	908.76	905.3	901.83	49.22	40.2	33.21	27.76	23.37
x1 = 0.6454	932.09	928.75	925.39	922.03	918.66	113.11	90.9	72.83	59.18	48.51
x1 = 0.8019	945.97	942.74	939.48	936.22	932.94	264.17	201.81	156.42	122.42	97.36
x1 = 0.9009	953.34	950.15	946.94	943.74	940.53	475.32	347.84	260.75	197.78	152.81

[2]
Settings	refractive index
x1 = 0.0319	1.3681
x1 = 0.0608	1.3731
x1 = 0.0999	1.3804
x1 = 0.1977	1.3965
x1 = 0.2965	1.4073
x1 = 0.4008	1.4152
x1 = 0.5005	1.4219
x1 = 0.6454	1.4292
x1 = 0.8019	1.436
x1 = 0.9009	1.4396

CC(=O)O.CCCCN [butylammonium acetate] + CCCO
[1]
Settings	mass density, 293.15 K [kg/m3]	mass density, 298.15 K [kg/m3]	mass density, 303.15 K [kg/m3]	mass density, 308.15 K [kg/m3]	mass density, 313.15 K [kg/m3]	viscosity, 293.15 K [mPa·s]	viscosity, 298.15 K [mPa·s]	viscosity, 303.15 K [mPa·s]	viscosity, 308.15 K [mPa·s]	viscosity, 313.15 K [mPa·s]
x1 = 0.0315	814.1	810.13	806.12	802.09	798.01	2.862	2.496	2.202	1.955	1.672
x1 = 0.0601	822.82	818.91	814.95	810.95	806.91	3.515	3.158	2.773	2.447	2.167
x1 = 0.0977	833.38	829.52	825.63	821.7	817.72	4.733	4.116	3.595	3.157	2.828
x1 = 0.198	857.48	853.76	850	846.22	842.42	8.602	7.371	6.367	5.493	4.77
x1 = 0.3002	877.71	874.1	870.46	866.8	863.11	17.5	14.77	12.51	10.66	9.154
x1 = 0.4021	894.7	891.19	887.65	884.1	880.52	31.54	26.08	22.23	18.48	15.72
x1 = 0.497	908.39	904.94	901.48	898.01	894.53	47.48	38.69	31.74	26.4	22.13
x1 = 0.6487	927.09	923.74	920.37	917	913.6	108.49	87.22	70.42	56.62	46.76
x1 = 0.799	942.52	939.27	936.01	932.73	929.43	244.69	186.83	148.78	116.88	93.14
x1 = 0.8981	951.47	948.25	945.03	941.83	938.61	445.2	326.53	244.83	186.41	144.84

[2]
Settings	refractive index
x1 = 0.0315	1.3875
x1 = 0.0601	1.3912
x1 = 0.0977	1.3953
x1 = 0.198	1.4045
x1 = 0.3002	1.4122
x1 = 0.4021	1.4185
x1 = 0.497	1.4236
x1 = 0.6487	1.4305
x1 = 0.799	1.4362
x1 = 0.8981	1.4395
